# Measurements taken from patent US6479487B1, “6, 9-disubstituted 2-[trans-(4-aminocyclohexyl)amino] purines” (Aventis Pharmaceuticals Inc., priority 1998, dated 2002).
# “And” between values parts separate entries of the source, which are not always exact repeats. Equal values may be shown once. Where a name gives a salt, the structure may show the parent alone. Read-outs that look alike come from different tables or passages of the source.
# Assays:
# cdk2/cyclin E = molecular target: T1, cdk2/cyclin E (Homo sapiens, UniProt P24941); test: Cyclin-Dependent Kinase 2 Assay (cdk2/cyclin E, GST-Rb substrate); type: biochemical; settings: recombinant cdk2/cyclin E, 10 μM ATP, 30 min at 30° C., several values in a cell = separate determinations, read-out: CDK-2 Inhibition IC50
# T1 construct: made in house; host or cells: insect cells (baculovirus co-infection)
# Description: Substrate: GST-Rb as described above for cdk4/cyclin D1
# Assay conditions for cdk2/cyclin E were identical to those for cdk4/cyclin D1 including the substrate. The concentration of recombinant cdk2/cyclin E in the assay was 0.1 μg per 100 μl assay. Incubation was for 30 min at 30° C.
# cdk4/cyclin D1 = molecular target: T2, cdk4/cyclin D1 (Homo sapiens, UniProt P11802); test: Cyclin-dependent Kinase 4 Assay (cdk4/cyclin D1, GST-Rb substrate); type: biochemical; settings: cdk4/cyclin D1 insect cell lysate, 10 μM ATP, 30 min at 37° C., several values = separate determinations, read-out: CDK4 Inhibition IC50
# T2 construct: made in house; host or cells: Sf9 insect cells (Bac-to-Bac baculovirus, pFastBac)
# Method in brief: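 Insect-cell lysate of coexpressed cdk4/cyclin D1 (0.1 μg) acts on GST-Rb (0.5 μg) bound to glutathione-Sepharose, in 50 mM HEPES pH 7.5, 10 mM MgCl2, 1 mM EGTA. Reaction runs 30 min at 37 °C, then is stopped by filtration and TNEN washes. Rb phosphorylation read by scintillation counting; IC50 derived.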
# MDA-MB-231 = test: In vitro tumor cell proliferation, MDA-MB-231; type: cell-based, human; settings: sulforhodamine B or CyQUANT assay, many values given with an undefined *, read-out: In vitro Tumor Cell Proliferation (IC50, μM) Breast MDA-MB-231
# Method in brief: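 Cells plated overnight at 37 °C, then exposed to drug for 3 days, refed with fresh drug and incubated 4 more days. Read-out by sulforhodamine B staining after TCA fixation; alternatively, CyQUANT after 3-day drug exposure and freezing at −80 °C.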
# MDA-MB-435 = test: In vitro tumor cell proliferation, MDA-MB-435; type: cell-based; settings: values given with an undefined *, read-out: In vitro Tumor Cell Proliferation (IC50, μM) Breast MDA-MB-435
# Method in brief: (§1)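 Cells seeded overnight at 37° C, then exposed to drug diluted in medium; at 3 days medium and drug replenished for another 4 days. Growth read by sulforhodamine B staining after TCA fixation; alternatively by CyQUANT, with plates frozen at −80° C after 3 days of drug.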
# HT-29 = test: In vitro tumor cell proliferation, HT-29; type: cell-based, human; settings: many values given with an undefined *, read-out: In vitro Tumor Cell Proliferation (IC50, μM) Colon HT-29
# Method in brief: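 HT-29 cells seeded overnight at 37° C, then exposed to drug for 3 days, refed with fresh drug-containing medium for 4 more days. Proliferation read by sulforhodamine B staining after TCA fixation; alternatively by CyQUANT after freezing plates at −80° C following 3 days' drug exposure.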
# Colo-205 = test: In vitro tumor cell proliferation, Colo-205; type: cell-based; settings: values given with an undefined *, read-out: In vitro Tumor Cell Proliferation (IC50, μM) Colon Colo-205
# Method in brief: as §1
# A549 = test: In vitro tumor cell proliferation, A549; type: cell-based, human; settings: many values given with an undefined *, read-out: In vitro Tumor Cell Proliferation (IC50, μM) Lung A549
# Method in brief: as §1
# DMS-114 = test: In vitro tumor cell proliferation, DMS-114; type: cell-based, human; settings: many values given with an undefined *, read-out: In vitro Tumor Cell Proliferation (IC50, μM) Lung DMS-114
# Method in brief: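 Human small cell lung carcinoma DMS-114 cells plated overnight, then drug-treated for 3 days, medium and drug renewed, and incubated 4 more days. Growth read by sulforhodamine B staining after TCA fixation; alternatively by CyQUANT after 3 days' drug exposure and freezing at −80 °C.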
# PC-3 = test: In vitro tumor cell proliferation, PC-3; type: cell-based, human; settings: many values given with an undefined *, read-out: In vitro Tumor Cell Proliferation (IC50, μM) Prostate PC-3
# Method in brief: as §1
# DU145 = test: In vitro tumor cell proliferation, DU145; type: cell-based, human; settings: many values given with an undefined *, read-out: In vitro Tumor Cell Proliferation (IC50, μM) Prostate DU145
# Method in brief: as §1
# [1] = Homo sapiens, MDA-MB-231, MDA-MB-231
# [2] = Homo sapiens, MDA-MB-435, MDA-MB-435
# [3] = Homo sapiens, COLO 205, Colo-205
# T2 sequence (P11802 whole entry): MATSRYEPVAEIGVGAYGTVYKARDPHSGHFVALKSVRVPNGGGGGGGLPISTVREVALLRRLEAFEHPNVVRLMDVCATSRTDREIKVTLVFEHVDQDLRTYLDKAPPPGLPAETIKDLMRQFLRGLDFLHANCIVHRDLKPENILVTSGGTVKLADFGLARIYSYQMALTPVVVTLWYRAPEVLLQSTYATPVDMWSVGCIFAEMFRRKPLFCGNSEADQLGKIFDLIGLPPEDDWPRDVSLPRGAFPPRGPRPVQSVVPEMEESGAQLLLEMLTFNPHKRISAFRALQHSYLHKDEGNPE
# T2 sequence (P24385 whole entry partner): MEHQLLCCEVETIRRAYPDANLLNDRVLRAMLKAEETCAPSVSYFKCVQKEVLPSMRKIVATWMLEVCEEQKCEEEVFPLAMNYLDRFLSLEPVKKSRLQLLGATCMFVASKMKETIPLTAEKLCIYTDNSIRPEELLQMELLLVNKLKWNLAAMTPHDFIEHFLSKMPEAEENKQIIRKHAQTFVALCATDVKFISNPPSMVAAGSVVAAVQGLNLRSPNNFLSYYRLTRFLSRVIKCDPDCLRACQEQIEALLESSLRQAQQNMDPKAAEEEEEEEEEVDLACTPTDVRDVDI
IC50 (cdk2/cyclin E),IC50 (cdk4/cyclin D1),IC50 (MDA-MB-231; [1]) [µM],"IC50 (MDA-MB-231; MDA-MB-231, dihydrochloride) [µM]",IC50 (MDA-MB-435; [2]) [µM],"IC50 (MDA-MB-435; MDA-MB-435, dihydrochloride) [µM]","IC50 (HT-29; HT-29, dihydrochloride) [µM]","IC50 (HT-29; Homo sapiens, HT-29, HT-29) [µM]","IC50 (Colo-205; Colo-205, dihydrochloride) [µM]",IC50 (Colo-205; [3]) [µM],"IC50 (A549; A549, dihydrochloride) [µM]","IC50 (A549; Homo sapiens, A549, A549) [µM]","IC50 (DMS-114; Homo sapiens, DMS-114, DMS-114) [µM]","IC50 (PC-3; Homo sapiens, PC-3, PC-3) [µM]","IC50 (PC-3; PC-3, dihydrochloride) [µM]","IC50 (DU145; DU145, dihydrochloride) [µM]","IC50 (DU145; Homo sapiens, DU-145, DU145) [µM]","IC50 (DMS-114; DMS-114, dihydrochloride) [µM]",Compound,also measured
230 nM,400 nM and 700 nM,0.78,0.87,1.3,1.5,1.1,1,1.2,1,0.53,0.35,0.47,1.1,0.7,0.7,0.56,–,"N[C@H]1CC[C@H](Nc2nc(Nc3ccc(OC(F)(F)F)cc3)c3ncn(C4CCCC4)c3n2)CC1 [Example 5, 2-[Trans-(4-aminocyclohexyl)amino]-6-[(4-trifluoromethoxy)phenylamino]-9-cyclopentylpurine dihydrochloride]",–
690 nM,300 nM and 700 nM,6.2,–,–,–,–,–,–,5.4,–,7.2,6.3,6.4,–,–,7.8,–,"CCN(CC)CCNc1nc(N[C@H]2CC[C@H](N)CC2)nc2c1ncn2C1CCCC1 [Example 6, 2-[Trans-(4-aminocyclohexyl)amino]-6-[2-(diethylamino)ethylamino]-9-cyclopentylpurine trihydrochloride]","IC50 (MDA-MB-231; MDA-MB-231, trihydrochloride): 6.4 µM; IC50 (MDA-MB-435; MDA-MB-435, trihydrochloride): 11 µM; IC50 (HT-29; HT-29, trihydrochloride): 7.7 µM; IC50 (Colo-205; Colo-205, trihydrochloride): 4.7 µM; IC50 (DMS-114; DMS-114, trihydrochloride): 9.6 µM; IC50 (PC-3; PC-3, trihydrochloride): 8.2 µM; IC50 (DU145; DU145, trihydrochloride): 7.9 µM"
160 nM,1400 nM,4.4,4.9,11,10,4.8,4.6,3.5,3.4,–,3.4,2.8,4.2,4.8,5.2,5.5,3.3,"N[C@H]1CC[C@H](Nc2nc(NCc3cccc4ccccc34)c3ncn(C4CCCC4)c3n2)CC1 [Example 7, 2-[Trans-(4-aminocyclohexyl)amino]-6-[(1-napthyl)methylamino]-9-cyclopentylpurine dihydrochloride]",–
165 nM,3900 nM and 2000 nM,0.7,1.1,> 10,–,0.96,0.87,0.94,0.76,2,1.2,1,0.41,0.28,4,3.5,1.4,"COc1ccc2[nH]cc(CCNc3nc(N[C@H]4CC[C@H](N)CC4)nc4c3ncn4C3CCCC3)c2c1 [Example 9, 2-[Trans-(4-aminocyclohexyl)amino]-6-[(3-(5-methoxyindolyl))-2-ethylamino]-9-cyclopentylpurine dihydrochloride]",–
268 nM,5700 nM and 6100 nM,5.1,3.2,5.6,6,2,2.8,3.5,5.7,2.6,2.7,–,3.2,2.3,5.7,3.1,–,"N[C@H]1CC[C@H](Nc2nc(NNc3ccc(Cl)cc3Cl)c3ncn(C4CCCC4)c3n2)CC1 [Example 147, 2-[Trans-(4-aminocyclohexyl)amino]-6-(2,4-dichlorophenylhydrazino)-9-cyclopentylpurine dihydrochloride]",–

Compound,IC50 (cdk2/cyclin E),IC50 (cdk4/cyclin D1),IC50 (MDA-MB-231; [1]) [µM],"IC50 (MDA-MB-231; MDA-MB-231, dihydrochloride) [µM]",IC50 (MDA-MB-435; [2]) [µM],"IC50 (MDA-MB-435; MDA-MB-435, dihydrochloride) [µM]","IC50 (HT-29; HT-29, dihydrochloride) [µM]","IC50 (HT-29; Homo sapiens, HT-29, HT-29) [µM]","IC50 (Colo-205; Colo-205, dihydrochloride) [µM]",IC50 (Colo-205; [3]) [µM],"IC50 (A549; A549, dihydrochloride) [µM]","IC50 (A549; Homo sapiens, A549, A549) [µM]","IC50 (DMS-114; Homo sapiens, DMS-114, DMS-114) [µM]","IC50 (PC-3; Homo sapiens, PC-3, PC-3) [µM]","IC50 (PC-3; PC-3, dihydrochloride) [µM]","IC50 (DU145; DU145, dihydrochloride) [µM]","IC50 (DU145; Homo sapiens, DU-145, DU145) [µM]","IC50 (DMS-114; DMS-114, dihydrochloride) [µM]",also measured
2-[Trans-(4-aminocyclohexyl)amino]-6-[4-(1-(4-methylbenzyl))piperidinylamino]-9-cyclopentylpurine [Example 40],230 nM and 170 nM,1000 nM and 2000 nM,–,–,–,–,–,–,–,–,–,–,–,–,–,–,–,–,IC50 (MDA-MB-231; MDA-MB-231): 0.19 µM and 0.28 µM; IC50 (MDA-MB-435; MDA-MB-435): 0.27 µM; IC50 (HT-29; HT-29): 0.29 µM and 0.27 µM; IC50 (Colo-205; Colo-205): 0.16 µM and 0.18 µM; IC50 (A549; A549): 0.18 µM; IC50 (DMS-114; DMS-114): 0.26 µM; IC50 (PC-3; PC-3): 0.34 µM; IC50 (DU145; DU145): 0.24 µM
